The molecules below were run on T47D (PIK3CA H1047R) cells (assay: pS473 AKT assay with 2.5% FBS, T47D cells). Settings: Homo sapiens, pSer473 AKT, DMEM with 2.5% FBS, 2 h treatment, read-out: T47D_IC50.
Format: cell-based
Method in brief: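 T47D (PIK3CA H1047R) cells were switched to DMEM with 2.5% FBS and exposed to compounds for 2 h. After paraformaldehyde fixation, pSer473 AKT was detected by in-cell ELISA (rabbit primary, HRP anti-rabbit secondary, chemiluminescence); IC50 values were fitted from the concentration series.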
In the case of `CCn1c(=O)c2cc(C)cc(C(C)Nc3ccc(Cl)nc3N3CCOCC3)c2c2cnn(CCO)c21` (centres unmarked) [Example 262, 9-[1-[(6-Chloro-2-morpholino-3-pyridyl)amino]ethyl]-4-ethyl-3-(2-hydroxyethyl)-7-methyl-pyrazolo[3,4-c]isoquinolin-5-one], the IC50 is reported as < 1 µM.
In the case of `Cc1cc(C(C)Nc2ccc(Cl)nc2-c2cnn(C)c2)c2c(c1)c(=O)n(C)c1c2cnn1CCN1CCOCC1` (centres unmarked) [Example 263, 9-[1-[[6-Chloro-2-(1-methylpyrazol-4-yl)-3-pyridyl]amino]ethyl]-4,7-dimethyl-3-(2-morpholinoethyl)pyrazolo[3,4-c]isoquinolin-5-one], the IC50 is reported as < 1 µM.
In the case of `Cc1cc(C(C)Nc2ccc(Cl)nc2-c2ccncc2F)c2c(c1)c(=O)n(C)c1c2cnn1CCN1CCOCC1` (centres unmarked) [Example 264, 9-(1-((6-chloro-3′-fluoro-[2,4′-bipyridin]-3-yl)amino)ethyl)-4,7-dimethyl-3-(2-morpholinoethyl)-3,4-dihydro-5H-pyrazolo[3,4-c]isoquinolin-5-one], the IC50 is reported as < 1 µM.
With `Cc1cc(C(C)Nc2ccc(Cl)nc2-c2ccncc2F)c2c(c1)c(=O)n(C)c1c2cnn1CCN1CCN(C)CC1` (centres unmarked) [Example 265, 9-(1-((6-chloro-3′-fluoro-[2,4′-bipyridin]-3-yl)amino)ethyl)-4,7-dimethyl-3-(2-(4-methylpiperazin-1-yl)ethyl)-3,4-dihydro-5H-pyrazolo[3,4-c]isoquinolin-5-one] the IC50 was < 1 µM.
`CNC(=O)c1ccc(-c2nc(Cl)ccc2NC(C)c2cc(C)cc3c(=O)n(C)c4c(cnn4CCN4CCOCC4)c23)cc1F` (centres unmarked) [Example 266, 4-(6-chloro-3-((1-(4,7-dimethyl-3-(2-morpholinoethyl)-5-oxo-4,5-dihydro-3H-pyrazolo[3,4-c]isoquinolin-9-yl)ethyl)amino)pyridin-2-yl)-2-fluoro-N-methylbenzamide] was tested, and the IC50 was < 1 µM.
In the case of `CNC(=O)c1ccc(-c2nc(Cl)ccc2NC(C)c2cc(C)cc3c(=O)n(C)c4c(cnn4CCN4CCN(C)CC4)c23)cc1F` (centres unmarked) [Example 267, 4-(6-chloro-3-((1-(4,7-dimethyl-3-(2-(4-methylpiperazin-1-yl)ethyl)-5-oxo-4,5-dihydro-3H-pyrazolo[3,4-c]isoquinolin-9-yl)ethyl)amino)pyridin-2-yl)-2-fluoro-N-methylbenzamide], the IC50 is reported as < 1 µM.
In the case of `Cc1cc(C(C)Nc2ccc(Cl)nc2-c2ncn(C)n2)c2c(c1)c(=O)n(CC(F)F)c1c2cnn1CCN1CCn2ncnc2C1` (centres unmarked) [Example 268, 9-(1-((6-chloro-2-(1-methyl-1H-1,2,4-triazol-3-yl)pyridin-3-yl)amino)ethyl)-4-(2,2-difluoroethyl)-3-(2-(5,6-dihydro-[1,2,4]triazolo[1,5-a]pyrazin-7(8H)-yl)ethyl)-7-methyl-3,4-dihydro-5H-pyrazolo[3,4-c]isoquinolin-5-one], the IC50 is reported as < 1 µM.
In the case of `CCn1c(=O)c2cc(C)cc(C(C)Nc3ccc(Cl)nc3-c3ncn(C)n3)c2c2cnn(-c3ccccn3)c21` (centres unmarked) [Example 269, 9-[1-[[6-Chloro-2-(1-methyl-1,2,4-triazol-3-yl)-3-pyridyl]amino]ethyl]-4-ethyl-7-methyl-3-(2-pyridyl)pyrazolo[3,4-c]isoquinolin-5-one], the IC50 is reported as < 1 µM.
In the case of `CCn1c(=O)c2cc(C)cc(C(C)Nc3ccc(Cl)nc3N3CCOCC3)c2c2cnn(-c3ccccn3)c21` (centres unmarked) [Example 270, 9-(1-((6-chloro-2-morpholinopyridin-3-yl)amino)ethyl)-4-ethyl-7-methyl-3-(pyridin-2-yl)-3,4-dihydro-5H-pyrazolo[3,4-c]isoquinolin-5-one], the IC50 is reported as < 1 µM.
With `CCn1c(=O)c2cc(C)cc(C(C)Nc3ccc(Cl)nc3-c3ccc(C(=O)NC)nc3)c2c2cnn(-c3ccccn3)c21` (centres unmarked) [Example 271, 6-chloro-3-((1-(4-ethyl-7-methyl-5-oxo-3-(pyridin-2-yl)-4,5-dihydro-3H-pyrazolo[3,4-c]isoquinolin-9-yl)ethyl)amino)-N-methyl-[2,3′-bipyridine]-6′-carboxamide] the IC50 was < 1 µM.
For `Cc1cc(C(C)Nc2ccc(Cl)nc2-c2noc(=O)[nH]2)c2c(c1)c(=O)n(C)c1c2cnn1-c1ccccn1` (centres unmarked) [Example 272, 3-(6-chloro-3-((1-(4,7-dimethyl-5-oxo-3-(pyridin-2-yl)-4,5-dihydro-3H-pyrazolo[3,4-c]isoquinolin-9-yl)ethyl)amino)pyridin-2-yl)-1,2,4-oxadiazol-5(4H)-one], the IC50 was < 1 µM.
For `Cc1cc(C(C)Nc2ccc(Cl)nc2-c2cnn(C)c2)c2c(c1)c(=O)n(C)c1c2cnn1-c1ccccn1` (centres unmarked) [Example 273, 9-(1-((6-chloro-2-(1-methyl-1H-pyrazol-4-yl)pyridin-3-yl)amino)ethyl)-4,7-dimethyl-3-(pyridin-2-yl)-3,4-dihydro-5H-pyrazolo[3,4-c]isoquinolin-5-one], the IC50 was < 1 µM.
For `CCn1c(=O)c2cc(C)cc(C(C)Nc3ccc(Cl)nc3-c3ncn(C)n3)c2c2cnn(-c3cccnc3)c21` (centres unmarked) [Example 274, 9-[1-[[6-Chloro-2-(1-methyl-1,2,4-triazol-3-yl)-3-pyridyl]amino]ethyl]-4-ethyl-7-methyl-3-(3-pyridyl)pyrazolo[3,4-c]isoquinolin-5-one], the IC50 was < 1 µM.
With `Cc1cc(C(C)Nc2ccc(Cl)nc2-c2cnn(C)c2)c2c(c1)c(=O)n(C)c1c2cnn1Cc1ccccn1` (centres unmarked) [Example 275, 9-[1-[[6-Chloro-2-(1-methylpyrazol-4-yl)-3-pyridyl]amino]ethyl]-4,7-dimethyl-3-(2-pyridylmethyl)pyrazolo[3,4-c]isoquinolin-5-one] the IC50 was < 1 µM.
With `Cc1cc(C(C)Nc2ccc(Cl)nc2-c2noc(=O)[nH]2)c2c(c1)c(=O)n(C)c1c2cnn1Cc1ccccn1` (centres unmarked) [Example 276, 3-(6-Chloro-3-((1-(4,7-dimethyl-5-oxo-3-(pyridin-2-ylmethyl)-4,5-dihydro-3H-pyrazolo[3,4-c]isoquinolin-9-yl)ethyl)amino)pyridin-2-yl)-1,2,4-oxadiazol-5(4H)-one] the IC50 was < 1 µM.
With `Cc1cc(C(C)Nc2ccc(Cl)nc2-c2ncn(C)n2)c2c(c1)c(=O)n(C)c1c2cnn1C1CCCN(C)C1` (centres unmarked) [Example 277, 9-[1-[[6-Chloro-2-(1-methyl-1,2,4-triazol-3-yl)-3-pyridyl]amino]ethyl]-4,7-dimethyl-3-(1-methyl-3-piperidyl)pyrazolo[3,4-c]isoquinolin-5-one] the IC50 was < 1 µM.
In the case of `Cc1cc(C(C)Nc2ccc(Cl)nc2-c2ncn(C)n2)c2c(c1)c(=O)n(C)c1c2cnn1C1CCCN(CCO)C1` (centres unmarked) [Example 278, 9-[1-[[6-chloro-2-(1-methyl-1,2,4-triazol-3-yl)-3-pyridyl]amino]ethyl]-3-[1-(2-hydroxyethyl)-3-piperidyl]-4,7-dimethyl-pyrazolo[3,4-c]isoquinolin-5-one], the IC50 is reported as < 1 µM.
`Cc1cc(C(C)Nc2ccc(Cl)nc2-c2cnn(C)c2)c2c(c1)c(=O)n(C)c1c2cnn1C1CCCN(C)C1` (centres unmarked) [Example 279, 9-[1-[[6-chloro-2-(1-methylpyrazol-4-yl)-3-pyridyl]amino]ethyl]-4,7-dimethyl-3-(1-methyl-3-piperidyl)pyrazolo[3,4-c]isoquinolin-5-one] was tested, and the IC50 was < 1 µM.
For `Cc1cc(C(C)Nc2ccc(Cl)nc2-c2cnn(C)c2)c2c(c1)c(=O)n(C)c1c2cnn1C1CCCN(CCO)C1` (centres unmarked) [Example 280, 9-[1-[[6-chloro-2-(1-methylpyrazol-4-yl)-3-pyridyl]amino]ethyl]-3-[1-(2-hydroxyethyl)-3-piperidyl]-4,7-dimethyl-pyrazolo[3,4-c]isoquinolin-5-one], the IC50 was < 1 µM.
In the case of `COC(=O)N1CCCC(n2ncc3c4c(C(C)Nc5ccc(Cl)nc5-c5cnn(C)c5)cc(C)cc4c(=O)n(C)c32)C1` (centres unmarked) [Example 281, methyl 3-[9-[1-[[6-chloro-2-(1-methylpyrazol-4-yl)-3-pyridyl]amino]ethyl]-4,7-dimethyl-5-oxo-pyrazolo[3,4-c]isoquinolin-3-yl]piperidine-1-carboxylate], the IC50 is reported as < 1 µM.
With `CNC(=O)c1ccc(-c2nc(Cl)ccc2OC(C)c2cc(C)cc3c(=O)n(C)c4c(cnn4C4CCN(C)CC4)c23)cn1` (centres unmarked) [Example 282, 5-[6-Chloro-3-[1-[4,7-dimethyl-3-(1-methyl-4-piperidyl)-5-oxo-pyrazolo[3,4-c]isoquinolin-9-yl]ethoxy]-2-pyridyl]-N-methyl-pyridine-2-carboxamide] the IC50 was < 1 µM.
With `CNC(=O)c1ccc(-c2nc(Cl)ccc2OC(C)c2cc(C)cc3c(=O)n(C)c4c(cnn4C4CCN(C(C)=O)CC4)c23)cn1` (centres unmarked) [Example 283, 5-[3-[1-[3-(1-Acetyl-4-piperidyl)-4,7-dimethyl-5-oxo-pyrazolo[3,4-c]isoquinolin-9-yl]ethoxy]-6-chloro-2-pyridyl]-N-methyl-pyridine-2-carboxamide] the IC50 was < 1 µM.
For `Cc1cc(C(C)Nc2ccc(Cl)nc2-c2ncn(C)n2)c2c(c1)c(=O)n1c3c2cnn3C(CO)CC1` (centres unmarked) [Example 284, 10-(1-((6-Chloro-2-(1-methyl-1H-1,2,4-triazol-3-yl)pyridin-3-yl)amino)ethyl)-3-(hydroxymethyl)-8-methyl-4,5-dihydro-3H,6H-2,2a,5a-triazaaceanthrylen-6-one], the IC50 was < 1 µM.
For `Cc1cc(C(C)Nc2ccc(Cl)nc2-c2nnn(C)n2)c2c(c1)c(=O)n1c3c2cnn3C(CO)CC1` (centres unmarked) [Example 285, 10-(1-((6-chloro-2-(2-methyl-2H-tetrazol-5-yl)pyridin-3-yl)amino)ethyl)-3-(hydroxymethyl)-8-methyl-4,5-dihydro-3H,6H-2,2a,5a-triazaaceanthrylen-6-one], the IC50 was < 1 µM.
For `Cc1cc(C(C)Nc2ccc(Cl)nc2-c2nnco2)c2c(c1)c(=O)n1c3c2cnn3C(CO)CC1` (centres unmarked) [Example 286, 10-(1-((6-chloro-2-(1,3,4-oxadiazol-2-yl)pyridin-3-yl)amino)ethyl)-3-(hydroxymethyl)-8-methyl-4,5-dihydro-3H,6H-2,2a,5a-triazaaceanthrylen-6-one], the IC50 was < 1 µM.
For `Cc1cc(C(C)Nc2ccc(Cl)nc2-c2cnn(C)c2)c2c(c1)c(=O)n1c3c2cnn3C(CO)CC1` (centres unmarked) [Example 287, 10-(1-((6-chloro-2-(1-methyl-1H-pyrazol-4-yl)pyridin-3-yl)amino)ethyl)-3-(hydroxymethyl)-8-methyl-4,5-dihydro-3H,6H-2,2a,5a-triazaaceanthrylen-6-one], the IC50 was < 1 µM.
